According to US9012642B2, “Pyrrolopyridinone compounds and methods for treating HIV” (ViiV Healthcare UK Limited, priority 2011, dated 2015):
Read-outs that look alike come from different tables or passages of the source.

Tested on: HIV
Assay: HIV MT4 Assay (antiviral HIV activity in MT-4 cells)
Format: cell-based
Protocol: Antiviral HIV activity and cytotoxicity values for compounds of the invention from Table 1 were measured in parallel in the HTLV-1 transformed cell line MT-4 based on the method previously described (Hazen et al., 2007, In vitro antiviral activity of the novel, tyrosyl-based human immunodeficiency virus (HIV) type 1 protease inhibitor brecanavir (GW640385) in combination with other antiretrovirals and against a panel of protease inhibitor-resistant HIV (Hazen et al., “In vitro antiviral activity of the novel, tyrosyl-based human immunodeficiency virus (HIV) type 1 protease inhibitor brecanavir (GW640385) in combination with other antiretrovirals and against a panel of protease inhibitor-resistant HIV”, Antimicrob. Agents Chemother. 2007, 51: 3147-3154; and Pauwels et al., “Sensitive and rapid assay on MT-4 cells for the detection of antiviral compounds against the AIDS virus”, (J. of Virological Methods 1987, 16: 171-185).
Luciferase activity was measured 96 hours later by adding a cell titer glo (Promega, Madison, Wis.). Percent inhibition of cell protection data was plotted relative to no compound control. Under the same condition, cytotoxicity of the compounds was determined using cell titer Glo™ (Promega, Madison, Wis.). IC50s were determined from a 10 point dose response curve using 3-4-fold serial dilution for each compound, which spans a concentration range >1000 fold.
These values are plotted against the molar compound concentrations using the standard four parameter logistic equation: y=((Vmax*x^n)/(K^n+x^n))+Y^2
Y^2=minimum y n=slope factor
Vmax=maximum y x=compound concentration [M]

[1] = Human immunodeficiency virus 1, MT4, HTLV-1 transformed cell line MT-4, luciferase activity measured 96 hours later, Table 3, read-out: HIV MT4 Assay IC50
[2] = MT4, 96 h, read-out: MT4 (IC50)

Structure (SMILES)	IC50 [1] [µM]	IC50 [2] [µM]
Cc1c(-c2c(C(OC(C)(C)C)C(=O)O)n(C)c(=O)c3c2ccn3Cc2cccc(F)c2)ccc2c1CCCO2 (centres unmarked) [Example 45, 2-(tert-butoxy)-2-(1-(3-fluorobenzyl)-6-methyl-4-(5-methylchroman-6-yl)-7-oxo-6,7-dihydro-1H-pyrrolo[2,3-c]pyridin-5-yl)acetic acid]	0.08	0.08
Cc1c(-c2c(C(OC(C)(C)C)C(=O)O)n(C)c(=O)c3c2cnn3Cc2ccc(F)cc2)ccc2c1CCCO2 (centres unmarked) [Example 67, 2-(tert-butoxy)-2-(1-(4-fluorobenzyl)-6-methyl-4-(5-methylchroman-6-yl)-7-oxo-6,7-dihydro-1H-pyrazolo[3,4-c]pyridin-5-yl)acetic acid]	0.08	0.08
COc1ccc(Cn2ccc3c(-c4ccc(Cl)cc4)c(C(OC(C)(C)C)C(=O)O)n(C)c(=O)c32)cc1 (centres unmarked) [Example 3, 2-(tert-butoxy)-2-(4-(4-chlorophenyl)-1-(4-methoxybenzyl)-6-methyl-7-oxo-6,7-dihydro-1H-pyrrolo[2,3-c]pyridin-5-yl)acetic acid]	0.46	0.46
Cn1c(C(OC(C)(C)C)C(=O)O)c(-c2ccc(Cl)cc2)c2ccn(Cc3cc(F)ccc3F)c2c1=O (centres unmarked) [Example 8, 2-(tert-butoxy)-2-(4-(4-chlorophenyl)-1-(2,5-difluorobenzyl)-6-methyl-7-oxo-6,7-dihydro-1H-pyrrolo[2,3-c]pyridin-5-yl)acetic acid]	0.13	0.13
Cc1ccc(-c2c(C(OC(C)(C)C)C(=O)O)n(C)c(=O)c3c2ccn3Cc2ccc(SC(F)(F)F)cc2)cc1 (centres unmarked) [Example 23, 2-(tert-butoxy)-2-(6-methyl-7-oxo-4-(p-tolyl)-1-(4-((trifluoromethyl)thio)benzyl)-6,7-dihydro-1H-pyrrolo[2,3-c]pyridin-5-yl)acetic acid]	1.5	1.5
Cc1ccc(S(=O)(=O)n2ccc3c(-c4ccc(Cl)cc4)c(C(OC(C)(C)C)C(=O)O)n(C)c(=O)c32)cc1 (centres unmarked) [Example 17, 2-(tert-butoxy)-2-(4-(4-chlorophenyl)-6-methyl-7-oxo-1-tosyl-6,7-dihydro-1H-pyrrolo[2,3-c]pyridin-5-yl)acetic acid]	1.2	1.2
Cc1ccc(-c2c(C(OC(C)(C)C)C(=O)O)n(C)c(=O)c3c2c2ccccc2n3Cc2ccc(F)cc2)cc1 (centres unmarked) [Example 56, 2-(tert-butoxy)-2-(9-(4-fluorobenzyl)-2-methyl-1-oxo-4-(p-tolyl)-2,9-dihydro-1H-pyrido[3,4-b]indol-3-yl)acetic acid]	0.74	0.74
Cc1ccc(-c2c(C(OC(C)(C)C)C(=O)O)n(C)c(=O)c3c2ccn3Cc2ccc(B(O)O)cc2)cc1 (centres unmarked) [Example 21, 2-(1-(4-boronobenzyl)-6-methyl-7-oxo-4-(p-tolyl)-6,7-dihydro-1H-pyrrolo[2,3-c]pyridin-5-yl)-2-(tert-butoxy)acetic acid]	2.7	2.7
Cc1c(-c2c(C(OC(C)(C)C)C(=O)O)n(C)c(=O)c3c2ccn3CC2CCOCC2)ccc2c1CCCO2 (centres unmarked) [Example 52, 2-(tert-butoxy)-2-(6-methyl-4-(5-methylchroman-6-yl)-7-oxo-1-((tetrahydro-2H-pyran-4-yl)methyl)-6,7-dihydro-1H-pyrrolo[2,3-c]pyridin-5-yl)acetic acid]	0.35	0.35
Cc1c(-c2c(C(OC(C)(C)C)C(=O)O)n(C)c(=O)c3c2ccn3Cc2ccc(F)cc2)ccc2c1CCCO2 (atropisomer, axis not shown; (M)) [Example 41, (S)(M)-2-(tert-butoxy)-2-(1-(4-fluorobenzyl)-6-methyl-4-(5-methylchroman-6-yl)-7-oxo-6,7-dihydro-1H-pyrrolo[2,3-c]pyridin-5-yl)acetic acid]	0.01	0.01
Cc1ccc(-c2c(C(OC(C)(C)C)C(=O)O)n(C)c(=O)c3c2cnn3Cc2ccc(F)cc2)cc1 (centres unmarked) [Example 64, 2-(tert-Butoxy)-2-(1-(4-fluorobenzyl)-6-methyl-7-oxo-4-(p-tolyl)-6,7-dihydro-1H-pyrazolo[3,4-c]pyridin-5-yl)acetic acid]	0.18	0.18
Cc1nc(Cn2ccc3c(-c4ccc(Cl)cc4)c(C(OC(C)(C)C)C(=O)O)n(C)c(=O)c32)cs1 (centres unmarked) [Example 11, 2-(tert-butoxy)-2-(4-(4-chlorophenyl)-6-methyl-1-((2-methylthiazol-4-yl)methyl)-7-oxo-6,7-dihydro-1H-pyrrolo[2,3-c]pyridin-5-yl)acetic acid]	0.31	0.31
COc1ccc(Cn2ccc3c(-c4ccc(C)cc4)c(C(OC(C)(C)C)C(=O)O)n(C)c(=O)c32)cc1 (centres unmarked) [Example 29, 2-(tert-butoxy)-2-(1-(4-methoxybenzyl)-6-methyl-7-oxo-4-(p-tolyl)-6,7-dihydro-1H-pyrrolo[2,3-c]pyridin-5-yl)acetic acid]	0.17	0.17
Cc1ccc(-c2c(C(OC(C)(C)C)C(=O)O)n(C)c(=O)c3c2c2ccccc2n3C)cc1 (centres unmarked) [Example 57, 2-(tert-butoxy)-2-(2,9-dimethyl-1-oxo-4-(p-tolyl)-2,9-dihydro-1H-pyrido[3,4-b]indol-3-yl)acetic acid]	0.08	0.08
Cc1c(-c2c(C(OC(C)(C)C)C(=O)O)n(C)c(=O)c3c2ccn3Cc2ccc([N+](=O)[O-])cc2)ccc2c1CCCO2 (centres unmarked) [Example 47, 2-(tert-butoxy)-2-(6-methyl-4-(5-methylchroman-6-yl)-1-(4-nitrobenzyl)-7-oxo-6,7-dihydro-1H-pyrrolo[2,3-c]pyridin-5-yl)acetic acid]	0.04	0.04
COc1ccc(Cn2c3c(c4c(-c5ccc6c(c5C)CCCO6)c(C(OC(C)(C)C)C(=O)O)n(C)c(=O)c42)CCCC3)cc1 (centres unmarked) [Example 62, 2-(tert-butoxy)-2-(9-(4-methoxybenzyl)-2-methyl-4-(5-methylchroman-6-yl)-1-oxo-2,5,6,7,8,9-hexahydro-1H-pyrido[3,4-b]indol-3-yl)acetic acid]	0.05	0.05
Cn1c(C(OC(C)(C)C)C(=O)O)c(-c2ccc(Cl)cc2)c2c(Br)cn(Cc3ccccc3)c2c1=O (centres unmarked) [Example 14, 2-(1-benzyl-3-bromo-4-(4-chlorophenyl)-6-methyl-7-oxo-6,7-dihydro-1H-pyrrolo[2,3-c]pyridin-5-yl)-2-(tert-butoxy)acetic acid]	0.75	0.75
Cn1c(C(OC(C)(C)C)C(=O)O)c(-c2ccc(Cl)cc2)c2ccn(Cc3ccccc3)c2c1=O (centres unmarked) [Example 1, 2-(1-benzyl-4-(4-chlorophenyl)-6-methyl-7-oxo-6,7-dihydro-1H-pyrrolo[2,3-c]pyridin-5-yl)-2-(tert-butoxy)acetic acid]	0.22	0.22
Cc1c(-c2c(C(OC(C)(C)C)C(=O)O)n(C)c(=O)c3c2ccn3Cc2ccccc2)ccc2c1CCCO2 (centres unmarked) [Example 38, 2-(1-benzyl-6-methyl-4-(5-methylchroman-6-yl)-7-oxo-6,7-dihydro-1H-pyrrolo[2,3-c]pyridin-5-yl)-2-(tert-butoxy)acetic acid]	0.07	0.07
Cc1ccc(-c2c(C(OC(C)(C)C)C(=O)O)n(C)c(=O)c3c2ccn3-c2ccc(F)cc2)cc1 (centres unmarked) [Example 34, 2-(tert-butoxy)-2-(1-(4-fluorophenyl)-6-methyl-7-oxo-4-(p-tolyl)-6,7-dihydro-1H-pyrrolo[2,3-c]pyridin-5-yl)acetic acid]	0.77	0.77
Cc1ccc(-c2c(C(OC(C)(C)C)C(=O)O)n(C)c(=O)c3c2ccn3Cc2ccc(Cl)c(F)c2)cc1 (centres unmarked) [Example 31, 2-(tert-butoxy)-2-(1-(4-chloro-3-fluorobenzyl)-6-methyl-7-oxo-4-(p-tolyl)-6,7-dihydro-1H-pyrrolo[2,3-c]pyridin-5-yl)acetic acid]	0.11	0.11
Cc1ccc(-c2c(C(OC(C)(C)C)C(=O)O)n(C)c(=O)c3c2ccn3C)cc1 (centres unmarked) [Example 30, 2-(tert-butoxy)-2-(1,6-dimethyl-7-oxo-4-(p-tolyl)-6,7-dihydro-1H-pyrrolo[2,3-c]pyridin-5-yl)acetic acid]	1.1	1.1
COc1ccc(Cn2c3c(c4c(-c5ccc(C)cc5)c(C(OC(C)(C)C)C(=O)O)n(C)c(=O)c42)CCCC3)cc1 (centres unmarked) [Example 61, 2-(tert-butoxy)-2-(9-(4-methoxybenzyl)-2-methyl-1-oxo-4-(p-tolyl)-2,5,6,7,8,9-hexahydro-1H-pyrido[3,4-b]indol-3-yl)acetic acid]	0.1	0.1
Cc1ccc(-c2c(C(OC(C)(C)C)C(=O)O)n(C)c(=O)c3c2ccn3Cc2ccccc2)cc1 (centres unmarked) [Example 19, 2-(1-benzyl-6-methyl-7-oxo-4-(p-tolyl)-6,7-dihydro-1H-pyrrolo[2,3-c]pyridin-5-yl)-2-(tert-butoxy)acetic acid]	0.08	0.08
Cc1c(-c2c(C(OC(C)(C)C)C(=O)O)n(C)c(=O)c3c2ccn3C)ccc2c1CCCO2 (centres unmarked) [Example 40, 2-(tert-butoxy)-2-(1,6-dimethyl-4-(5-methylchroman-6-yl)-7-oxo-6,7-dihydro-1H-pyrrolo[2,3-c]pyridin-5-yl)acetic acid]	0.5	0.5
